How the values were obtained:
hiPSC-derived NSCs [1] = assay: OLIG2 immunostaining of hiPSC-derived NSCs at D12; type: cell-based, human; details: for effect on WIN-induced upregulation of OLIG2+ cells: co-treatment with WIN, D12
Experimental: (§1) In order to generate PAX6+/NESTIN+/SOX2+NSC, the dual SMAD neural induction method was used. hiPSCs with a density of ˜80% with neural induction medium (NIM) were treated from day 0 (DO) to day 7, and the medium was changed every day. Starting from D8, the medium was changed daily to fresh N2 medium containing RA (100 nM), purine amine (PUR, 1 μM) and WIN (1 μM). Starting from D12, cells were manually isolated and suspended in the ultra-low attachment plate in N2B27 medium containing RA (100 nM), PUR (1 μM) and WIN (1 μM), and the medium was changed every other day. Starting from D20, the spheroids were further suspended in PDGF-AA medium for culture. At D30, expanded spheroids were seeded on Matrigel-coated plates or Petri dishes with low growth factors in the glial differentiation medium (GDM).
(§2) The identification of cell markers in the present invention uses an immunofluorescence staining method, wherein cells (NSCs, OPCs and OLs) at different culture stages were cultured on confocal Petri dishes coated with Matrigel or Matrigel with reduced growth factors, washed three times with pre-cooled PBS, and fixed with 4% paraformaldehyde (PFA) at room temperature for 15 minutes. The fixed samples were then washed three times, permeabilized and blocked with blocking solution containing 0.5% triton X-100 and 2% bovine serum albumin (BSA) for 30 min at room temperature. The diluted primary antibodies listed in Table S2 were applied to cover the cells overnight at 4° C. The next day, the corresponding secondary antibodies (listed in Table S3) were added for staining in the dark for 60 min at room temperature after washing. DAPI containing anti-fluorescence quencher was then added to the culture dish for nuclear staining. Images were taken using a confocal microscope (Zeiss, LSM880) or an inverted microscope (Nikon, Eclipse Ti2-U).

[2] = test system: hiPSC-derived cell spheres; assay: Cell migration out of spheroids; type: cell-based, human; details: after 36 hours, n=40
Experimental: In order to test the migration ability, the inventor carried out experiments on two dimensions of spheroid and single-cell state. First, the inventors have observed the ability of cells in the control and WIN groups to migrate out of the spheroids. Selected spheroids of the same size at day 30 from the control and WIN groups were seeded on 6-well plates coated with Matrigel with reduced growth factor in GDM medium. After 4, 12, 24, and 36 h, cell spheres and migrated cells were observed and imaged under an inverted microscope.

NSC = assay: Effect of WIN concentration series on NSC growth; type: cell-based, human; details: 1 μM WIN
hiPSC-derived OPCs [3] = assay: Scratch assay, single-cell migration; type: cell-based, human; details: at 48h, n=3
Experimental: In the scratch assay, 34-day-old cells were digested with pre-warmed accutase and filtered through […] cell filter to produce a single-cell suspension. After centrifugation, these single cells were seeded on a 24-well plate coated with Matrigel with reduced growth factor at the density of 2×10^6/mL and cultured with GDM. When the cell confluence reached 70-80%, a scratch was formed on the cell using 10 μL the pipette tip. After washing with DPB, fresh GDM was added to the wells. Cell images were collected at 0, 12, 24, 36, 48, 60, and 72 h using an inverted microscope. All images were measured and analyzed by Image J (i.e., software image J).

[4] = test system: rat neuropathic pain models; details: cited from earlier work
hiPSC-derived NSCs [5] = assay: Number of OLIG2+ spheroids in suspension culture at D20; type: cell-based, human; details: D20, n=3
Experimental: as §1

hiPSC-derived OPCs [6] = assay: In vitro maturation of OPCs to OLs (O4, GALC, MBP; immunofluorescence and flow cytometry); type: cell-based, human
Experimental: as §2
Taking flow cytometry based on anti-O4-APC antibody as an example, 2 μL antibody was added to a 98 μL of single cell suspension containing 1×10^6 cells and cell staining buffer, mixed well and incubated for 10 min in the dark in a refrigerator. After incubation, cells were washed and dried. The cell pellet was then resuspended in an appropriate amount of buffer and filtered through […] cell filter prior to analysis. Flow cytometry was performed on a CytoFLEX cytometer (Beckman, USA).

O4+ OPCs = assay: Nanofiber myelination assay; type: cell-based, human; details: after 2 weeks of culture
Experimental: O4+ OPC isolation was performed according to the manufacturer's instructions using MACS based on anti-O4 microbeads (MiltenyiBiotec, Germany). A single cell suspension was prepared by digesting cells with pre warmed Accutase at 37° C. for 30 min at day 44. After digestion, the cell mixture was diluted with pre-cooled DMEM/F12 and centrifuged at 300 g for 5 min at room temperature. The cells were then resuspended in DMEM/F12 and filtered through […] cell filter, and cells were collected by centrifugation at 300 g for 5 min at room temperature. After mixing evenly, the cell mixture was incubated in a refrigerator for 15 min. Then 1 mL of cold MACS buffer was added and centrifuged at 300 g for 10 min. The cell pellet was resuspended in 500 μL cold MACS buffer and mixed well. Afterwards, the cell mixture was added to the MS column and pre-rinsed using 500 μL cold MACS buffer in the magnetic field of a suitable MACS separator, and the column was washed three times with 500 μL buffer. Unlabeled cells were collected from the effluent. When the column reservoir was empty, the column was placed on a 15 mL collection tube and rinse with 1 mL buffer. Magnetically labeled cells were collected from the effluent by firmly pushing the plunger into the column. The eluted O4+ rich cells were then centrifuged at 300 g for 5 min and resuspended in 1 mL GDM. […]

hiPSC-derived OPCs/OLs = assay: qRT-PCR relative mRNA expression in differentiating cells; type: cell-based, human
Description: The present invention uses qRT-PCR to calculate the relative mRNA expression fold changes. The specific method is as follows: according to the manufacturer's instructions, the RNA rapid purification kit (ES science, Shanghai, China) was used to collect and purify the total RNA of cells and spinal cord tissue. After quantifying the RNA concentration with NANODROP ONE (Thermo Fisher Scientific, USA),
EasyScript® Integrated first-line cDNA synthesis Supermix and T100TM thermal cycler (BIO-RAD) was used for […] (one-step gDNA removal), and then PerfectStart Green qPCR SiperMix (TRNAS, China) and LightCycler® 96 (Roche) were used for quantification by qRT-PCR. All processes were performed according to the manufacturer's instructions. 2-AACt method was used to calculate the relative mRNA expression fold changes.

D30 cells = assay: RNA SEQ on D30 cells; type: cell-based, human
Experimental: Total RNA was extracted using RNA rapid purification kit (ES science, Shanghai, China) according to the manufacturer's instructions. RNA library sequencing was performed on an Illumina HiseqTM 2500/4000 by Gene Denovo Biotechnology Co.,
Ltd. (Guangzhou, China). Bioinformatics analysis was performed using Omicsmart, which is a real-time interactive online platform for data analysis (http://www.omicsmart.com).

hiPSC-derived OPCs [7] = assay: OPC marker immunofluorescence and flow cytometry at D34; type: cell-based, human; details: D34, n=3
Experimental: as §2
Taking flow cytometry based on anti-O4-APC antibody as an example, 2 μL antibody was added to a 98 μL of single cell suspension containing 1×10^6 cells and cell staining buffer, mixed well and incubated for 10 min in the dark in a refrigerator. After incubation, cells were washed and dried. […]

| SMILES | effect on WIN-induced upregulation of OLIG2+ cells (hiPSC-derived NSCs [1]) | OLIG2-positive (OLIG2+) cells (hiPSC-derived NSCs [1]; 1 μM WIN, D12, n=3) [%] | average migration distance of cells from cell spheres [2] [μm] | side effects on the growth of NSC (NSC) | migration rate in scratch experiment (hiPSC-derived OPCs [3]) [%] | analgesic activity [4] | OLIG2+ spheroids relative to control group (hiPSC-derived NSCs [5]) [times] | percentage of O4+ cells (hiPSC-derived OPCs [6]; D44, n=4) [%] | cells expressing immature OL marker GALC (hiPSC-derived OPCs [6]; D55, n=3) [%] | percentage of mature OLs co-expressing O4 and MBP (hiPSC-derived OPCs [6]; D66, n=3) [%] | area of nanofibers covered by MBP compared with control group (O4+ OPCs) | number of MBP+ OLs on nanofibers compared with control group (O4+ OPCs) | mRNA expression level of PDGFR a compared with control group (hiPSC-derived OPCs/OLs; D30, n=3, P<0.01) | mRNA expression of GALC (hiPSC-derived OPCs/OLs; D55) | mRNA expression of MBP (hiPSC-derived OPCs/OLs; D55) | mRNA expression of PLP1 (hiPSC-derived OPCs/OLs; D55) | genes down-regulated compared with control group (D30 cells) [genes] | genes up-regulated compared with control group (D30 cells) [genes] | cells expressing PDGFR α (hiPSC-derived OPCs [7]) |
| --- | --- | --- | --- | --- | --- | --- | --- | --- | --- | --- | --- | --- | --- | --- | --- | --- | --- | --- | --- |
| Cc1c(C(=O)NN2CCCCC2)nn(-c2ccc(Cl)cc2Cl)c1-c1ccc(Cl)cc1 [rimonabant, Rimonabant] | significantly inhibited |  |  |  |  |  |  |  |  |  |  |  |  |  |  |  |  |  |  |
| COc1ccc(C(=O)c2c(C)n(CCN3CCOCC3)c3cc(I)ccc23)cc1 [AM630] | significantly inhibited |  |  |  |  |  |  |  |  |  |  |  |  |  |  |  |  |  |  |
| Cc1c(C(=O)c2cccc3ccccc23)c2cccc3c2n1[C@H](CN1CCOCC1)CO3 [WIN, WIN55212-2] |  | 95.4±0.2 | 203.7±6.3 | no side effects on the growth of NSC | 44.5±1.0 | potent analgesic | 1.7 ±0.1 | 42.4±2.1 | 86.2±5.3 | 37.2±2.9 | significantly increased | significantly increased | up-regulated | up-regulated | up-regulated | up-regulated | 98 | 983 | more than 95.4±2.2% |

From patent publication US20250319136A1, “METHOD FOR PREPARING OLIGOD[…] USE” (Shenzhen ExoNeuglia Biomedical Technology Co., Ltd., priority 2022, published 2025)
